This is an account of results in patent publication US20230085307A1, “PYRIDAZINONE COMPOUND AND HERBICIDE” (NISSAN CHEMICAL CORPORATION, priority 2019, published 2023).

One assay has as its system persian speedwell. Briefly: Test Example 4: herbicidal effect by soil treatment (Table 19, symbol R). Type of assay: in vivo, Persian speedwell (Veronica persica). The following applies: amount of applied herbicide 320 g/ha. The method, boiled down: (§1)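 Herbicidal effect was rated 3 weeks after treatment, using the scoring criteria of an earlier test. The compound, formulated as an emulsion and diluted in water to a set herbicide amount, had been sprayed uniformly on soil over freshly sown seeds. Growth took place in a greenhouse at 25° C. to 30° C.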
`Cc1nn(C)c(=O)c(-c2c(-c3ccccc3F)sc3ccc(F)cc23)c1O` [2-199]: the “R: persian speedwell, herbicidal effect rating” value is reported as 0 (Herbicidal rate of 5% or less (almost no effect)).

Another assay deals with lambsquarters. Briefly: Test Example 4: herbicidal effect by soil treatment (Table 19, symbol O). Type of assay: in vivo, lambsquarters (Chenopodium album). Conditions: amount of applied herbicide 320 g/ha. Put shortly:
as §1
Consider `Cc1nn(C)c(=O)c(-c2c(-c3ccccc3F)sc3ccc(F)cc23)c1O` [2-199], for which the “O: lambsquarters, herbicidal effect rating” value was 4 (Herbicidal rate of 70% or more and less than 90%).

The test system of a further assay is southern crabgrass. Kind of assay: Test Example 5: herbicidal effect by foliage application, plastic box (Table 20, symbol F). It is filed as in vivo, southern crabgrass (Digitaria ciliaris). The following applies: foliage application, 320 g/ha, evaluated three weeks after application. Put shortly: (§2)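 Foliar spray test: emulsion formulation diluted in water to a set application rate, sprayed onto 14-day-old plants raised in diluvial soil at 25° C to 30° C under glass. Both herbicidal effect and crop effect rated visually three weeks later.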
As for `Cc1nn(C)c(=O)c(-c2c(-c3ccccc3F)sc3ccc(F)cc23)c1O` [2-199], the “herbicidal effect on F: southern crabgrass (criteria 0-5)” value was 4 (Herbicidal rate of 70% or more and less than 90%).

A further assay has as its system redroot pigweed. Briefly: Test Example 5: herbicidal effect by foliage application, plastic box (Table 20, symbol N). Type of assay: in vivo, redroot pigweed (Amaranthus retroflexus). The following applies: foliage application, 320 g/ha, evaluated three weeks after application. Put shortly:
as §2
As for `Cc1nn(C)c(=O)c(-c2c(-c3ccccc3F)sc3ccc(F)cc23)c1O` [2-199], the “herbicidal effect on N: redroot pigweed (criteria 0-5)” value was 5 (Herbicidal rate of 90% or more (almost completely withered)).

Another assay concerns late watergrass. Kind of assay: Test Example 1: herbicidal activity, application before weed generation under submerged conditions (Table 16, symbol A). The following applies: 320 g/ha applied herbicide. Type of assay: in vivo, late watergrass (Echinochloa oryzicola). Put shortly: (§3)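 Submerged Wagner pots (alluvial soil, 4 cm water) sown with weed seeds and planted with 2.5-leaf rice seedlings; emulsifiable concentrate diluted in water applied to water surface on sowing day. Held in greenhouse at 25-30 °C; injury scored 0-5 by herbicidal rate after three weeks.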
On to `Cc1nn(C)c(=O)c(-c2c(-c3ccccc3F)sc3ccc(F)cc23)c1O` [2-199], for which the “Herbicidal effect on A: late watergrass (grade 0-5)” value is 1 (Herbicidal rate of 5% or more and less than 20%).

The subject of the next assay is oval-leafed pondweed. Briefly: Test Example 1: herbicidal activity, application before weed generation under submerged conditions (Table 16, symbol C). Type of assay: in vivo, oval-leafed pondweed (Monochoria vaginalis). Conditions: 320 g/ha applied herbicide. The method, boiled down: as §3
On to `Cc1nn(C)c(=O)c(-c2c(-c3ccccc3F)sc3ccc(F)cc23)c1O` [2-199], for which the “Herbicidal effect on C: oval-leafed pondweed (grade 0-5)” value was 2 (Herbicidal rate of 20% or more and less than 40%).

The subject of the next assay is rice flat sedge. Briefly: Test Example 3: herbicidal effect by foliage application, Wagner pot (Table 18, symbol E). It is filed as in vivo, rice flat sedge (Cyperus iria). Conditions: amount of applied herbicide 320 g/ha. Put shortly: (§4)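 Plants were sown in alluvial soil held under 0.1–0.5 cm standing water and grown 14 days in a greenhouse at 25–30 °C. An emulsifiable formulation, water-diluted to the set dose, was then sprayed onto the foliage, and effects were scored three weeks later using previously defined criteria.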
For the compound `Cc1nn(C)c(=O)c(-c2c(-c3ccccc3F)sc3ccc(F)cc23)c1O` [2-199], the “herbicidal effect on E: rice flat sedge” value is on record as 5 (Herbicidal rate of 90% or more (almost completely withered)).

In another assay the test system is Italian ryegrass. Briefly: Test Example 4: herbicidal effect by soil treatment (Table 19, symbol K). It is filed as in vivo, Italian ryegrass (Lolium multiflorum). Conditions: amount of applied herbicide 320 g/ha. The method, boiled down: as §1
As to `Cc1nn(C)c(=O)c(-c2c(-c3ccccc3F)sc3ccc(F)cc23)c1O` [2-199], the “K: Italian ryegrass, herbicidal effect rating” value is 3 (Herbicidal rate of 40% or more and less than 70%).

Another assay concerns windgrass. Kind of assay: Test Example 5: herbicidal effect by foliage application, plastic box (Table 20, symbol L). Type of assay: in vivo, windgrass (Apera spica-venti). Conditions: foliage application, 320 g/ha, evaluated three weeks after application. The method, boiled down: as §2
As to `Cc1nn(C)c(=O)c(-c2c(-c3ccccc3F)sc3ccc(F)cc23)c1O` [2-199], the “herbicidal effect on L: windgrass (criteria 0-5)” value is listed as 0 (Herbicidal rate of 5% or less (almost no effect)).

The test system of another assay is chickweed. Kind of assay: Test Example 4: herbicidal effect by soil treatment (Table 19, symbol P). Type of assay: in vivo, common chickweed (Stellaria media). Conditions: amount of applied herbicide 320 g/ha. Put shortly:
as §1
As for `Cc1nn(C)c(=O)c(-c2c(-c3ccccc3F)sc3ccc(F)cc23)c1O` [2-199], the “P: chickweed, herbicidal effect rating” value is 2 (Herbicidal rate of 20% or more and less than 40%).

A further assay has as its system Chinese sprangletop. Kind of assay: Test Example 3: herbicidal effect by foliage application, Wagner pot (Table 18, symbol D). It is filed as in vivo, chinese sprangletop (Leptochloa chinensis). Conditions: amount of applied herbicide 320 g/ha. Put shortly:
as §4
Turning to `Cc1nn(C)c(=O)c(-c2c(-c3ccccc3F)sc3ccc(F)cc23)c1O` [2-199], the “herbicidal effect on D: Chinese sprangletop” value is 5 (Herbicidal rate of 90% or more (almost completely withered)).

The subject of the next assay is barnyard grass. Kind of assay: Test Example 5: herbicidal effect by foliage application, plastic box (Table 20, symbol H). Type of assay: in vivo, barnyard grass (Echinochloa crus-galli). The following applies: foliage application, 320 g/ha, evaluated three weeks after application. The method, boiled down:
as §2
For `Cc1nn(C)c(=O)c(-c2c(-c3ccccc3F)sc3ccc(F)cc23)c1O` [2-199], the “herbicidal effect on H: barnyard grass (criteria 0-5)” value is 3 (Herbicidal rate of 40% or more and less than 70%).

The subject of a further assay is blackgrass. Briefly: Test Example 5: herbicidal effect by foliage application, plastic box (Table 20, symbol J). It is filed as in vivo, blackgrass (Alopecurus myosuroides). The following applies: foliage application, 320 g/ha, evaluated three weeks after application. Put shortly:
as §2
With `Cc1nn(C)c(=O)c(-c2c(-c3ccccc3F)sc3ccc(F)cc23)c1O` [2-199], the “herbicidal effect on J: blackgrass (criteria 0-5)” value is 3 (Herbicidal rate of 40% or more and less than 70%).

In the next assay the test system is chickweed. Kind of assay: Test Example 5: herbicidal effect by foliage application, plastic box (Table 20, symbol P). Type of assay: in vivo, common chickweed (Stellaria media). The following applies: foliage application, 320 g/ha, evaluated three weeks after application. The method, boiled down:
as §2
Take `Cc1nn(C)c(=O)c(-c2c(-c3ccccc3F)sc3ccc(F)cc23)c1O` [2-199]: the “herbicidal effect on P: chickweed (criteria 0-5)” value was 5 (Herbicidal rate of 90% or more (almost completely withered)).

The next assay relates to velvetleaf. Briefly: Test Example 5: herbicidal effect by foliage application, plastic box (Table 20, symbol M). Type of assay: in vivo, velvetleaf (Abutilon theophrasti). Conditions: foliage application, 320 g/ha, evaluated three weeks after application. Put shortly: as §2
For the compound `Cc1nn(C)c(=O)c(-c2c(-c3ccccc3F)sc3ccc(F)cc23)c1O` [2-199], the “herbicidal effect on M: velvetleaf (criteria 0-5)” value is 5 (Herbicidal rate of 90% or more (almost completely withered)).

The test system of a further assay is windgrass. Kind of assay: Test Example 4: herbicidal effect by soil treatment (Table 19, symbol L). It is filed as in vivo, windgrass (Apera spica-venti). The following applies: amount of applied herbicide 320 g/ha. The method, boiled down:
as §1
For `Cc1nn(C)c(=O)c(-c2c(-c3ccccc3F)sc3ccc(F)cc23)c1O` [2-199], the “L: windgrass, herbicidal effect rating” value was 0 (Herbicidal rate of 5% or less (almost no effect)).

The subject of a further assay is barnyard grass. Kind of assay: Test Example 3: herbicidal effect by foliage application, Wagner pot (Table 18, symbol H). The following applies: amount of applied herbicide 320 g/ha. Type of assay: in vivo, barnyard grass (Echinochloa crus-galli). Put shortly: as §4
Take `Cc1nn(C)c(=O)c(-c2c(-c3ccccc3F)sc3ccc(F)cc23)c1O` [2-199]: the “herbicidal effect on H: barnyard grass” value is given as 5 (Herbicidal rate of 90% or more (almost completely withered)).

The next assay has as its system Japanese bulrush. Briefly: Test Example 1: herbicidal activity, application before weed generation under submerged conditions (Table 16, symbol B). It is filed as in vivo, Japanese bulrush (Schoenoplectus juncoides). The following applies: 320 g/ha applied herbicide. The method, boiled down: as §3
For the compound `Cc1nn(C)c(=O)c(-c2c(-c3ccccc3F)sc3ccc(F)cc23)c1O` [2-199], the “Herbicidal effect on B: Japanese bulrush (grade 0-5)” value was 3 (Herbicidal rate of 40% or more and less than 70%).

A further assay has as its system wild oat. Briefly: Test Example 5: herbicidal effect by foliage application, plastic box (Table 20, symbol I). Type of assay: in vivo, wild oat (Avena fatua). Conditions: foliage application, 320 g/ha, evaluated three weeks after application. Put shortly:
as §2
`Cc1nn(C)c(=O)c(-c2c(-c3ccccc3F)sc3ccc(F)cc23)c1O` [2-199]: the “herbicidal effect on I: wild oat (criteria 0-5)” value was 1 (Herbicidal rate of 5% or more and less than 20%).
